From the RepoRT retention time repository (doi:10.1021/acs.analchem.2c02893)

Assay: RP, Thermo Scientific Acclaim RSLC 120 C18, 100 × 2.1 mm, 2.2 µm, 30 °C, 0.2 mL/min, estimated dead time 1.1 min; A: 90% water + 10% methanol + 0.01% formic acid + 5 mM ammonium formate, pH 3.61; B: methanol + 0.01% formic acid + 5 mM ammonium formate, pH 3.61; gradient (min/%B) 0/1 1/1 2/39 13/99.9 15/99.9 15.1/1 20.1/1
Details: stereoisomer not certain

Compound	LC retention time
CC1=CC(=O)N2CC(=O)N(C)c3ccc(Cl)cc3C2(c2ccccc2)O1 (configuration not stated) [Ketazolam]	9.79 min
CSc1nc(NC2CC2)nc(NC(C)(C)C)n1 [Irgarol]	10.5 min
CCOP(=S)(OCC)SC(CCl)N1C(=O)c2ccccc2C1=O (configuration not stated) [Dialifos]	11.5 min
NCC(O)COc1ccccc1C(=O)CCc1ccccc1 (configuration not stated) [Propafenone-N-Desmethyl]	7.09 min
Cc1ccc(NC(=O)NC(C)(C)c2ccccc2)cc1 [Daimuron (Dymron)]	9.68 min
Cc1cccc(C)c1NC(=O)CS(=O)(=O)O	9.34 min
CCCc1nn(C)c2c(=O)[nH]c(-c3cc(S(=O)(=O)N4CC(C)NC(C)C4)ccc3OCC)nc12 (configuration not stated) [Sildenafil-Dimethyl]	7.6 min
CNCCC(Oc1cccc2ccccc12)c1cccs1 (configuration not stated) [Duloxetine]	8.11 min
NS(=O)(=O)c1cc(C(=O)O)cc(N2CCCC2)c1Oc1ccccc1 [Piretanide]	7.17 min
O=C1C(Cl)C(CCl)CN1c1cccc(C(F)(F)F)c1 (configuration not stated) [Flurochloridone]	9.84 min
CCCCCn1cc(C(=O)c2ccc(OC)cc2)c2ccccc21 [RCS-4]	11.8 min
O=c1c2cc(F)ccc2nc(-n2cncn2)n1-c1ccc(Cl)cc1Cl [Fluquinconazole]	10.1 min
CN(CC(O)CO)C(=O)c1c(I)c(NC(=O)C(CO)CO)c(I)c(C(=O)N(C)CC(O)CO)c1I (configuration not stated) [Iobitridol]	2.74 min
CC(C)C(O)(C(=O)OCC1=CC[N+]2([O-])CCC(O)C12)C(C)O (configuration not stated) [Lycopsamine-N-oxide]	3.94 min
CON=C(C(=O)NC1C(=O)N2C(C(=O)[O-])=C(C[n+]3cccc4c3CCCC4)CSC12)c1csc(N)n1 (configuration not stated) [Cefquinome]	3.76 min
c1ccc2c(c1)[nH]c1ccncc12 [5-Carboline]	8.7 min
O=C1OC(=O)c2ccccc21 [PX-1]	9.58 min
CC(N)C(=O)c1ccccc1 (configuration not stated) [Cathinone]	3.59 min
C[N+]12CCC(CC1)C(OC(=O)C(O)(c1ccccc1)c1ccccc1)C2 (configuration not stated) [Clidinium (I+)]	5.84 min
CC1=C(CC(=O)O)c2cc(F)ccc2C1=Cc1ccc(S(C)=O)cc1 (configuration not stated) [Sulindac]	8.24 min
CCN(CC)CCCC(C)Nc1ccnc2cc(Cl)ccc12 (configuration not stated) [Chloroquine]	4.16 min
Cc1cc(C)cc(C(=O)N(NC(=O)c2ccc3c(c2C)CCCO3)C(C)(C)C)c1 [Chromafenozide]	9.93 min

Compound	LC retention time
N=C(N)N1CCc2ccccc2C1 [Debrisoquine]	4.39 min
C1COC(NC(C2CC2)C2CC2)=N1 [Rilmenidine]	4.4 min
Cc1ccc(NC(=O)c2ccc(CN3CCN(C)CC3)cc2)cc1Nc1nccc(-c2cccnc2)n1 [Imatinib]	6.6 min
CCOC(=O)NC(=S)Nc1ccccc1NC(=S)NC(=O)OCC [Thiophanate-ethyl]	8.61 min
CCCc1nn(C)c2c(=O)[nH]c(-c3cc(C(=O)CN4CC(C)NC(C)C4)ccc3OCC)nc12 (configuration not stated) [Acetildenafil-Dimethyl]	7.5 min
Cc1ccccc1C(OCCN(C)C)c1ccccc1 (configuration not stated) [Orphenadrine]	7.44 min
COC(=O)CSP(=S)(OC)OC	7.16 min
COc1ccc2c3c1OC1C(OC(C)=O)=CCC4C(C2)N(C)CCC314 (configuration not stated) [Thebacon]	4.47 min
CCCC(C(=O)c1ccc(C)cc1)N1CCCC1 (configuration not stated) [Pyrovalerone]	6.03 min
CC12CCC3C4CCC(=O)C=C4CCC3C1CCC2O (configuration not stated) [Nandrolone]	9.37 min
CC(=O)OC1C(C)OC(n2cc(F)c(N)nc2=O)C1OC(C)=O (configuration not stated) [Cytidine-2' 3'-di-O-acetyl-5'-deoxy-5-fluoro]	5.06 min
O=C(Oc1cccc2ccccc12)c1nn(CCCCCF)c2ccccc12 [SDB-005-5F]	12.1 min
CCCOCCN(C(=O)CCl)c1c(CC)cccc1CC [Pretilachlor]	11.8 min
C=CCC1=C(C)C(OC(=O)C2C(C=C(C)C(=O)OC)C2(C)C)CC1=O (configuration not stated) [Allethrin II]	12.3 min
CNC(=O)ON=C(C)SC [Methomyl]	4.16 min
CN(C)CCOC(C)(c1ccccc1)c1ccccn1 (configuration not stated) [Doxylamine]	5.18 min
CNC(=O)Oc1ccccc1C1OCCO1 [Dioxacarb]	5.16 min
CC(CN1c2ccccc2Sc2ccccc21)N(C)C (configuration not stated) [Promethazine]	7.53 min
Oc1ccc2c3c1OC1C(O)CCC4(O)C(C2)N(CC2CCC2)CCC314 (configuration not stated) [Nalbuphine]	4.17 min
c1ccc2c(CC3=NCCN3)cccc2c1 [Naphazoline]	4.84 min
CCC(=O)C(CCN(C)C)(c1ccccc1)c1ccccc1 [Methadone-Nor]	7.68 min
CC(C)Nc1nc(Cl)nc(NC(C)C)n1 [Propazine]	9.16 min

Compound	LC retention time
CN(C)C1C(=O)C(C(N)=O)=C(O)C2(O)C(=O)C3=C(O)c4c(O)ccc(Cl)c4C(C)(O)C3CC12 (configuration not stated) [Chlortetracycline]	4.5 min
CCC(c1ccccc1)c1c(O)c2ccccc2oc1=O (configuration not stated) [Phenprocoumon]	9.05 min
O=C(Nc1ccccc1)c1ccccc1I [Benodanil]	8.02 min
Cc1ncsc1CCCl [Clomethiazole]	6.69 min
CCCCCn1nc(C(=O)Oc2cccc3cccnc23)c2ccccc21 [NPB-22]	11.4 min
CC(CC(=O)Nc1ccc(Cl)cc1Cl)N1CCCCC1 (configuration not stated) [Clibucaine]	6.27 min
Cc1c(N)c(=O)n(-c2ccccc2)n1C [Antipyrine-4-Amino (4-AAP)]	4.69 min
CN1CCCCC1Cn1cc(C(=O)C2C(C)(C)C2(C)C)c2ccccc21 (configuration not stated) [AB-005]	8.81 min
COP(=S)(OC)Oc1ccc(Sc2ccc(OP(=S)(OC)OC)cc2)cc1 [Temephos]	12.4 min
Cc1c(C(=O)c2cccc3ccccc23)c2cccc3c2n1C(CN1CCOCC1)CO3 (configuration not stated) [WIN-55-212-2]	10.9 min
COC(=O)c1c(C(F)F)nc(C(F)(F)F)c(C2=NCCS2)c1CC(C)C [Thiazopyr]	10.7 min
COc1cc(OC)nc(NC(=O)NS(=O)(=O)c2ncccc2C(=O)N(C)C)n1 [Nicosulfuron]	6.62 min
CCCNC(C)C(=O)Nc1c(C)csc1C(=O)OC (configuration not stated) [Carticaine (Articaine)]	4.69 min
c1coc(-c2nc3ccccc3[nH]2)c1 [Fuberidazole]	6.48 min
Cc1cn(C2CC(N=[N+]=[N-])C(CO)O2)c(=O)[nH]c1=O (configuration not stated) [Zidovudine]	4.56 min
CC1(c2ccc(Oc3ccccc3)cc2)OC(=O)N(Nc2ccccc2)C1=O (configuration not stated) [Famoxadone]	11 min
NC1=NCCN1Cc1ccc(Cl)nc1 [Imidacloprid-guanidine]	11 min
CN1CCC(N(Cc2ccccc2)c2ccccc2)CC1 [Bamipine]	7.77 min
C#CC1(O)CCC2C3CCC4=CC(=O)CCC4C3CCC21C (configuration not stated) [Norethisterone]	9.15 min
COc1nn(CSP(=S)(OC)OC)c(=O)s1 [Methidathion]	8.7 min
COc1ccc(C(O)(c2cncnc2)C2CC2)cc1 (configuration not stated) [Ancymidol]	7.15 min
OCc1ncc2n1-c1ccc(Cl)cc1C(c1ccccc1F)=NC2 [Midazolam -1-Hydroxy]	8.44 min

Compound	LC retention time
CN(C)CCc1c[nH]c2cccc(O)c12 [Psilocin]	3.29 min
CCCc1cc(C(N)=S)ccn1 [Protionamide]	6.36 min
NC(=O)N1c2ccccc2C2OC2c2ccccc21 (configuration not stated) [Carbamazepine-10.11-epoxide]	6.04 min
O=c1[nH]sc2ccccc12 [1,2-Benzisothiazolinone]	5.14 min
CC(=O)c1ccc2c(c1)N(CC(C)N(C)C)c1ccccc1S2 (configuration not stated) [Aceprometazine]	7.26 min
CC1(C)C(C=CC(=O)OC(C(F)(F)F)C(F)(F)F)C1C(=O)OC(C#N)c1cccc(Oc2ccccc2)c1 (configuration not stated) [Acrinathrin]	9.17 min
CC1C2Cc3ccc(O)cc3C1(C)CCN2CCc1ccccc1 (configuration not stated) [Phenazocine]	6.08 min
CNC(=O)Oc1ccccc1OC(C)C [Propoxur]	6.94 min
Cc1cccc(C)c1N(C(=O)CCl)C1CCOC1=O (configuration not stated) [Ofurace]	7 min
CC(C)OC(=O)C(O)(c1ccc(Cl)cc1)c1ccc(Cl)cc1 [Chloropropylate]	12.2 min
Cc1ncc(CO)c(CO)c1O [Pyridoxine]	2.18 min
CCC[N+]12C(O)C(CC)C3CC1C1N(C)c4ccccc4C14CC2C3C4O (configuration not stated) [Prajmaline]	6.07 min
CCC(NC)C(=O)c1ccccc1 (configuration not stated) [Buphedrone]	4.26 min
CCCCn1cc(C(=O)c2cccc3ccccc23)c2cccc(O)c21 [JWH-073-M-7-OH-Ind]	11.2 min
CCSc1ccc2c(c1)N(CCCN1CCN(C)CC1)c1ccccc1S2 [Thiethylperazine]	10.4 min
C=CCOc1ccccc1OCC(O)CNC(C)C (configuration not stated) [Oxprenolol]	5.66 min
OCC(O)CN1CCN(c2ccccc2)CC1 (configuration not stated) [Dropropizine]	3.79 min
CC(C)(C)c1n[nH]c(=O)n(N)c1=O [Metribuzin-Diketo (DK)]	5.89 min
CN(C)S(=O)(=O)c1ccc2c(c1)N(CCCN1CCC(CCO)CC1)c1ccccc1S2 [Pipotiazine]	7.39 min
COc1ccc2cc(CCC(C)=O)ccc2c1 [Nabumetone]	9.82 min
NC1CCC(c2ccc(Cl)c(Cl)c2)c2ccccc21 (configuration not stated) [Sertraline-Desmethyl]	9.02 min
